Measured values as given in the NIST ThermoML archive (doi:10.1016/j.jct.2017.07.008).
Several values for one entry are separate records, joined by “and”; a condition that tells them apart may be missing. Equal entries are not always repeated. Numbers after ± are expanded uncertainties.

Details: for mass density / viscosity / speed of sound / vapor or sublimation pressure: Liquid; for mass density: Vibrating tube method; for surface tension liquid-gas: Drop volume; for viscosity: Capillary tube (Ostwald / Ubbelohde) method; for speed of sound: Frequency=3 MHz, Single path-length method; for vapor or sublimation pressure: Ebulliometric method (Recirculating still)

O=Cc1cccs1 [2-thiophenealdehyde]
Details	mass density	speed of sound [m/s]	viscosity [mPa·s]
313.15 K, 65000 kPa	1238.47 ± 0.98 kg/m3	–	–
315.65 K, 100 kPa	1199.69 ± 0.57 kg/m3	1404.1 ± 0.95	1.528 ± 0.018
318.15 K, 100 kPa	1197.17 ± 0.57 kg/m3 and 1197.16 ± 0.57 kg/m3	1395.9 ± 0.95	1.473 ± 0.018
318.15 K, 2000 kPa	1198.45 ± 0.57 kg/m3	–	–
318.15 K, 5000 kPa	1200.45 ± 0.58 kg/m3	–	–
318.15 K, 7000 kPa	1201.76 ± 0.59 kg/m3	–	–
318.15 K, 10000 kPa	1203.7 ± 0.6 kg/m3	–	–
318.15 K, 15000 kPa	1206.86 ± 0.63 kg/m3	–	–
318.15 K, 20000 kPa	1209.92 ± 0.65 kg/m3	–	–
318.15 K, 25000 kPa	1212.9 ± 0.68 kg/m3	–	–
318.15 K, 30000 kPa	1215.8 ± 0.71 kg/m3	–	–
318.15 K, 35000 kPa	1218.62 ± 0.74 kg/m3	–	–
318.15 K, 40000 kPa	1221.37 ± 0.77 kg/m3	–	–
318.15 K, 45000 kPa	1224.05 ± 0.81 kg/m3	–	–
318.15 K, 50000 kPa	1226.67 ± 0.85 kg/m3	–	–
318.15 K, 55000 kPa	1229.23 ± 0.88 kg/m3	–	–
318.15 K, 60000 kPa	1231.73 ± 0.92 kg/m3	–	–
318.15 K, 65000 kPa	1234.18 ± 0.96 kg/m3	–	–
320.65 K, 100 kPa	1194.65 ± 0.56 kg/m3	1387.6 ± 0.95	1.418 ± 0.017
323.15 K, 100 kPa	1192.12 ± 0.56 kg/m3	1379.3 ± 0.95	1.375 ± 0.017
323.15 K, 2000 kPa	1193.44 ± 0.57 kg/m3	–	–
323.15 K, 5000 kPa	1195.49 ± 0.58 kg/m3	–	–
323.15 K, 7000 kPa	1196.83 ± 0.59 kg/m3	–	–
323.15 K, 10000 kPa	1198.82 ± 0.6 kg/m3	–	–
323.15 K, 15000 kPa	1202.04 ± 0.62 kg/m3	–	–
323.15 K, 20000 kPa	1205.17 ± 0.65 kg/m3	–	–
323.15 K, 25000 kPa	1208.22 ± 0.68 kg/m3	–	–
323.15 K, 30000 kPa	1211.17 ± 0.7 kg/m3	–	–
323.15 K, 35000 kPa	1214.05 ± 0.73 kg/m3	–	–
323.15 K, 40000 kPa	1216.86 ± 0.77 kg/m3	–	–
323.15 K, 45000 kPa	1219.59 ± 0.8 kg/m3	–	–
323.15 K, 50000 kPa	1222.26 ± 0.84 kg/m3	–	–
323.15 K, 55000 kPa	1224.86 ± 0.87 kg/m3	–	–
323.15 K, 60000 kPa	1227.41 ± 0.91 kg/m3	–	–
323.15 K, 65000 kPa	1229.89 ± 0.95 kg/m3	–	–
325.65 K, 100 kPa	1189.6 ± 0.56 kg/m3	1371.1 ± 0.95	1.325 ± 0.016
328.15 K, 100 kPa	1187.08 ± 0.56 kg/m3 and 1187.07 ± 0.56 kg/m3	1362.8 ± 0.95	1.275 ± 0.015
328.15 K, 2000 kPa	1188.42 ± 0.57 kg/m3	–	–
328.15 K, 5000 kPa	1190.52 ± 0.58 kg/m3	–	–
328.15 K, 7000 kPa	1191.9 ± 0.59 kg/m3	–	–
328.15 K, 10000 kPa	1193.93 ± 0.6 kg/m3	–	–
328.15 K, 15000 kPa	1197.23 ± 0.62 kg/m3	–	–
328.15 K, 20000 kPa	1200.43 ± 0.64 kg/m3	–	–
328.15 K, 25000 kPa	1203.54 ± 0.67 kg/m3	–	–
328.15 K, 30000 kPa	1206.56 ± 0.7 kg/m3	–	–
328.15 K, 35000 kPa	1209.49 ± 0.73 kg/m3	–	–
328.15 K, 40000 kPa	1212.35 ± 0.76 kg/m3	–	–
328.15 K, 45000 kPa	1215.13 ± 0.79 kg/m3	–	–
328.15 K, 50000 kPa	1217.85 ± 0.83 kg/m3	–	–
328.15 K, 55000 kPa	1220.5 ± 0.87 kg/m3	–	–
328.15 K, 60000 kPa	1223.09 ± 0.9 kg/m3	–	–
328.15 K, 65000 kPa	1225.62 ± 0.94 kg/m3	–	–
330.65 K, 100 kPa	1184.55 ± 0.56 kg/m3	1354.6 ± 0.95	1.233 ± 0.015
333.15 K, 100 kPa	1182.02 ± 0.56 kg/m3	1346.4 ± 0.95	1.194 ± 0.014
333.15 K, 2000 kPa	1183.41 ± 0.57 kg/m3	–	–
333.15 K, 5000 kPa	1185.56 ± 0.58 kg/m3	–	–
333.15 K, 7000 kPa	1186.96 ± 0.58 kg/m3	–	–
333.15 K, 10000 kPa	1189.04 ± 0.6 kg/m3	–	–
333.15 K, 15000 kPa	1192.42 ± 0.62 kg/m3	–	–
333.15 K, 20000 kPa	1195.69 ± 0.64 kg/m3	–	–
333.15 K, 25000 kPa	1198.86 ± 0.67 kg/m3	–	–
333.15 K, 30000 kPa	1201.94 ± 0.69 kg/m3	–	–
333.15 K, 35000 kPa	1204.93 ± 0.72 kg/m3	–	–
333.15 K, 40000 kPa	1207.85 ± 0.75 kg/m3	–	–
333.15 K, 45000 kPa	1210.68 ± 0.79 kg/m3	–	–
333.15 K, 50000 kPa	1213.45 ± 0.82 kg/m3	–	–
333.15 K, 55000 kPa	1216.14 ± 0.86 kg/m3	–	–
333.15 K, 60000 kPa	1218.77 ± 0.89 kg/m3	–	–
333.15 K, 65000 kPa	1221.34 ± 0.93 kg/m3	–	–
335.65 K, 100 kPa	1179.49 ± 0.56 kg/m3	1338.2 ± 0.95	1.155 ± 0.014
338.15 K, 100 kPa	1176.97 ± 0.56 kg/m3	1330.2 ± 0.95	1.121 ± 0.014
338.15 K, 2000 kPa	1178.39 ± 0.57 kg/m3	–	–
338.15 K, 5000 kPa	1180.59 ± 0.58 kg/m3	–	–
338.15 K, 7000 kPa	1182.03 ± 0.58 kg/m3	–	–
338.15 K, 10000 kPa	1184.16 ± 0.59 kg/m3	–	–
338.15 K, 15000 kPa	1187.61 ± 0.61 kg/m3	–	–
338.15 K, 20000 kPa	1190.94 ± 0.64 kg/m3	–	–
338.15 K, 25000 kPa	1194.18 ± 0.66 kg/m3	–	–
338.15 K, 30000 kPa	1197.32 ± 0.69 kg/m3	–	–
338.15 K, 35000 kPa	1200.37 ± 0.72 kg/m3	–	–
338.15 K, 40000 kPa	1203.34 ± 0.75 kg/m3	–	–
338.15 K, 45000 kPa	1206.23 ± 0.78 kg/m3	–	–
338.15 K, 50000 kPa	1209.04 ± 0.81 kg/m3	–	–
338.15 K, 55000 kPa	1211.78 ± 0.85 kg/m3	–	–
338.15 K, 60000 kPa	1214.46 ± 0.88 kg/m3	–	–
338.15 K, 65000 kPa	1217.07 ± 0.92 kg/m3	–	–

Details	surface tension liquid-gas [mN/m]	vapor or sublimation pressure [kPa]
315.65 K	43.89 ± 0.32	–
318.15 K	43.6 ± 0.32	–
320.65 K	43.28 ± 0.32	–
323.15 K	43.01 ± 0.32	–
325.65 K	42.68 ± 0.32	–
328.15 K	42.39 ± 0.32	–
330.65 K	42.09 ± 0.31	–
333.15 K	41.76 ± 0.31	–
335.65 K	41.46 ± 0.31	–
336.42 K	–	0.66 ± 0.1
338.15 K	41.21 ± 0.31	–
340.7 K	–	0.85 ± 0.1
345.63 K	–	1.135 ± 0.1
349.65 K	–	1.4 ± 0.1
353.7 K	–	1.725 ± 0.1
356.19 K	–	1.915 ± 0.1
359.55 K	–	2.265 ± 0.1
361.67 K	–	2.55 ± 0.1
364.68 K	–	2.925 ± 0.1
366.94 K	–	3.265 ± 0.1
368.98 K	–	3.6 ± 0.1
372.07 K	–	4.14 ± 0.1
374.68 K	–	4.645 ± 0.1
376.79 K	–	5.065 ± 0.1
377.74 K	–	5.3 ± 0.1
379.92 K	–	5.8 ± 0.1
382.69 K	–	6.5 ± 0.1
386.72 K	–	7.585 ± 0.1
389.41 K	–	8.415 ± 0.1
391.94 K	–	9.285 ± 0.1
394.82 K	–	10.41 ± 0.1
399.42 K	–	12.29 ± 0.1
401.02 K	–	13.11 ± 0.1
403 K	–	14.06 ± 0.1
404.9 K	–	15.05 ± 0.1
407.06 K	–	16.14 ± 0.1
408.95 K	–	17.25 ± 0.1
411.16 K	–	18.6 ± 0.1
412.82 K	–	19.66 ± 0.1
413.9 K	–	20.41 ± 0.1
415.91 K	–	21.8 ± 0.11
418.01 K	–	23.36 ± 0.11
420.05 K	–	24.95 ± 0.11
422.07 K	–	26.6 ± 0.11
424.04 K	–	28.25 ± 0.11
426.15 K	–	30.11 ± 0.11
428.14 K	–	32.01 ± 0.11
429.02 K	–	32.92 ± 0.11
430.17 K	–	34.05 ± 0.11
431.54 K	–	35.47 ± 0.11
433.17 K	–	37.2 ± 0.11
